The values below come from patent US20250230165A1, “HETEROCYCLIC COMPOUNDS FOR USE IN THE TREATMENT OF CANCER” (ARTIOS PHARMA LIMITED, priority 2021, published 2025).

In this assay the target is T1, Human Polθ polymerase domain (aa1820-2590) (Homo sapiens, UniProt O75417).
T1 construct: Human Polθ polymerase domain (aa1820-2590) was expressed in E. coli; made in house; host or cells: E. coli
T1 sequence (O75417 1820-2590): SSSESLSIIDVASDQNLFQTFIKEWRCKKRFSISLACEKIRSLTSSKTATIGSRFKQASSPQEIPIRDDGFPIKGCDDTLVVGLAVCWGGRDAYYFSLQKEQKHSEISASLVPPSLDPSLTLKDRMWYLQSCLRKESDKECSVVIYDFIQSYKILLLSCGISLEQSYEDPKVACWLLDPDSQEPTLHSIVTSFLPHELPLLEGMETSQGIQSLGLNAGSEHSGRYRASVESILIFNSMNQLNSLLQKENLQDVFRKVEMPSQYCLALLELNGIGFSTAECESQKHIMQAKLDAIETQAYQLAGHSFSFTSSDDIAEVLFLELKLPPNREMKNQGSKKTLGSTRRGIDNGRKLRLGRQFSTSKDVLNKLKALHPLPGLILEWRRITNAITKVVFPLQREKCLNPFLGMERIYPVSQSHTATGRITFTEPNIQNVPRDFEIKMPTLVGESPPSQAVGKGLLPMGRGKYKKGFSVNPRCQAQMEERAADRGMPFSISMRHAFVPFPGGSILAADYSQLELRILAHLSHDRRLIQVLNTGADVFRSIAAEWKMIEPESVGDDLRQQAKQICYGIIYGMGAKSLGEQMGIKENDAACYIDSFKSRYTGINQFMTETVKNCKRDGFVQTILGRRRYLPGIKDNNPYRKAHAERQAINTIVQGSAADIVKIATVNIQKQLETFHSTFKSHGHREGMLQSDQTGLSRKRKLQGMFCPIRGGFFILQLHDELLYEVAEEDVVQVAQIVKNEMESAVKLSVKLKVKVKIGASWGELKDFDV
The experiment in a line: Polθ Polymerase Domain Kinact/KI Assay (PicoGreen). It counts as biochemical. As to conditions: 0.8 nM Polθ, 100 nM DNA substrate, kobs vs [I] fit for 2-step covalent inhibitor. The gist of the method: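 PicoGreen fluorescence read-out of primer extension; progress curves per inhibitor concentration fitted for kobs, then kobs vs [I] fitted to a two-step covalent model to give Kinact and KI. Conditions: 0.8 nM enzyme, 100 nM DNA substrate, […].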

With “(3aR,11aS)-5-(2-((3S/R,9aS/R)-8-acryloyl-3-methyl-4-oxooctahydro-2H-pyrazino[1,2-a]pyrazin-2-yl)ethyl)-6-fluoro-10-methyl-1-(6-methyl-4-(trifluoromethyl)pyridin-2-yl) 1,3a,4,5,10,11a-hexahydro-2H-benzo[b]pyrrolo[2,3-f][1,4]diazocine-2,11(3H)-dione [Example 110]”, the Kinact/Kl was determined as 1e+06 M⁻¹ s⁻¹.
